Here are results for 1 compound from paper PMC9103596, “The inhibitory effect of boric acid on hypoxia-regulated tumour-associated carbonic anhydrase IX” (Journal of Enzyme Inhibition and Medicinal Chemistry, 2022).

For one experiment, the target named is hCA XII (Homo sapiens, UniProt O43570). Particulars: read-out: KI hCA XII; stopped-flow CO2 hydrase assay, mean from three assays. The method, then:
(§1) The uncatalysed rates were determined in the same manner and subtracted from the total observed rates. Stock solutions of BA (or other inhibitors) (100 mM) were prepared in distilled – deionised water, and dilutions up to 0.01 nM were done thereafter with the assay buffer. Inhibitor and enzyme solutions were preincubated together for 6 h at room temperature prior to assay in order to allow for the formation of the E–I complex. The inhibition constants were obtained by nonlinear least-squares methods using PRISM 3 and the Cheng–Prusoff equation, as reported earlier, and represent the mean from at least three different determinations.

Another experiment concerns the target hCA II (Homo sapiens, UniProt P00918). Particulars: read-out: KI hCA II; stopped-flow CO2 hydrase assay, mean from three assays. The method, then: as §1
The target of a further experiment is hCA IX (Homo sapiens, UniProt Q16790). Particulars: read-out: KI hCA IX. The method, then: as §1
The next experiment has as its target hCA I (Homo sapiens, UniProt P00915). Particulars: read-out: KI hCA I; stopped-flow CO2 hydrase assay, mean from three assays. The method, then: as §1
Experiment [1] deals with A375 (human malignant melanoma) cells. Conditions: read-out: IC50 cell viability; A375, WST-1, 48 h. Here is the method: (§2) Cells were incubated at 37 °C and 5% CO2 in 25cm[3] flasks. On reaching 80–90% confluence, cell harvesting was performed by washing cells in phosphate-buffered saline (PBS) and then detached from the flask surface using trypsin-EDTA. Cell count was determined using a hematocytometer. Two separate cultures each for both HT29 and A375 were grown, one under normoxic conditions and the second one under hypoxic conditions. The normoxic cultures for HT29 and A375 were grown and incubated at normoxic conditions (37 °C and 5% CO2). […] The hypoxic chamber was placed in a 37 °C incubator for 4 h.
(§3) WST-1 reagent was used to measure mitochondrial dehydrogenase activity and determine cell viability. A 0.5 M stock of B(OH)3 was prepared by dissolving 0.309 g of B(OH)3 in 10 ml of distilled water. HT29 and A375 cells were seeded on 96-well plates and incubated for 24 h, allowing them to adhere to the wells before treatment with B(OH)3. Cells were then treated with 2.5, 5, 10, 25 50, 100, and 200 mM B(OH)3 and topped to 100 µL with a prepared cell medium (one well remaining as an untreated, negative control). The plates were then incubated for 24 and 48 h periods. After each period, […] WST-1 reagent was added to each well and then the plate was incubated for another 3–4 h at 37 °C with 5% CO2. The plates were read by using an Epoch microplate reader (BioTek, Cambridge, MA) with a wavelength of 450 nm. The results were analysed by using GraphPad Prism version 9 (Graphpad Software Inc., La Jolla, CA), for determining the IC50 values, with AZA as standard CA inhibitor. HT29 and A375 cells were seeded 0.3 × 10^6 cells/well into two separate six-well plates. On each well-plate, one column was treated with BA, the second was treated with AZA, and the third column was left untreated, serving as a control.
(In general: Tetrazolium assays rely on reduction of a dye to a coloured formazan, in cell work by metabolically active cells.)

Experiment [2] concerns HT29 (human colon cancer) cells. Conditions: read-out: IC50 cell viability. The method, then:
as §2, §3

In experiment [3] the test system is CA IX levels in A375 cells. Conditions: treated at IC50 concentration for 24 h, ELISA. The method, then:
as §2, §3

In experiment [4] the test system is CA IX levels in HT29 cells. Conditions: treated at IC50 concentration for 24 h, ELISA.
Protocol: Cells were incubated at 37 °C and 5% CO2 in 25cm[3] flasks. On reaching 80–90% confluence, cell harvesting was performed by washing cells in phosphate-buffered saline (PBS) and then detached from the flask surface using trypsin-EDTA. Cell count was determined using a hematocytometer. Two separate cultures each for both HT29 and A375 were grown, one under normoxic conditions and the second one under hypoxic conditions. The normoxic cultures for HT29 and A375 were grown and incubated at normoxic conditions (37 °C and 5% CO2). […] The hypoxic chamber was placed in a 37 °C incubator for 4 h. Hypoxia conditions were confirmed by detecting HIF-1α protein level by using an ELISA kit (Shangai Koon, Shanghai, China).
HT29 and A375 cells were seeded 0.3 × 10^6 cells/well into two separate six-well plates. On each well-plate, one column was treated with BA, the second was treated with AZA, and the third column was left untreated, serving as a control. […] The plates were then set aside to incubate for 24 h under normoxic conditions (37 °C and 5% CO2).
The lysates were collected by centrifugation at 13,000 × g for 15 min at 4 °C. […] These protein levels were determined by using CA IX ELISA kit and HIF1α ELISA kit according to the manufacturer’s instructions. […] Of 50 µL of the stop solution was then added and the microplates were read at 450 nm using the Epoch micro-plate reader (BioTek, Cambridge, MA).
Experiment [5] deals with androgen-sensitive LNCaP prostate cancer cells. Particulars: nude mice injected with LNCaP cells, treated with BA; cited from earlier work.

The Ki is a measure of affinity in units of concentration, obtained from inhibition or displacement. By IC50 is commonly meant the concentration at which inhibition is half-maximal.

Each structure is given as a SMILES string. Read-outs that look alike come from different tables or passages of the source.

Chain of hCA I (P00915 whole entry): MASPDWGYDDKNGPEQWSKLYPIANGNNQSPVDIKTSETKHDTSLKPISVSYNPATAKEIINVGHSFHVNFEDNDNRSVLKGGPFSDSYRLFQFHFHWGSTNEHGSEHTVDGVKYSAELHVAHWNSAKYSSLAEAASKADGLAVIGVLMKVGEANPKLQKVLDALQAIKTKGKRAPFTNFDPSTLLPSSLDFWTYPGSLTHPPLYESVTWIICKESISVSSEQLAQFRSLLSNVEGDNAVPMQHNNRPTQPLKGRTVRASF
Chain of hCA XII (O43570 25-354): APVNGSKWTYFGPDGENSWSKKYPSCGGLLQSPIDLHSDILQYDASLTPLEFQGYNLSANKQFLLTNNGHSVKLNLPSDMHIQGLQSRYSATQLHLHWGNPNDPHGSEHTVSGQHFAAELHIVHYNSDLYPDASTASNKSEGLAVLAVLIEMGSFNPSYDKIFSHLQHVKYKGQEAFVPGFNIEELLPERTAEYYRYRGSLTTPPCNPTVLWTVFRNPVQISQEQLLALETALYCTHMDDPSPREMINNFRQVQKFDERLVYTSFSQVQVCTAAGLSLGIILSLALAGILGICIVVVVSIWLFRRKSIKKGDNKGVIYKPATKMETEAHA

Turning to `OB(O)O` [Boric acid], the Ki on hCA XII turned out to be 6.2 mM; at hCA II it was 41 mM; at hCA IX, 2.8 mM; on hCA I, 29.9 mM. In addition, the IC50 in experiment [1] stood at 15.5 mM; in [2] (HT29, WST-1, 24 h) it was 19.6 mM; in experiment [2] (HT29, WST-1, 48 h), 23 mM. Besides, the “CA IX levels compared to control” value in experiment [3] (A375 hypoxic cell cultures) is given as “significantly reduced”; in [3] (A375 normoxic cell cultures), “significantly reduced”; in experiment [4] (HT29 hypoxic cell cultures), “increase”; in experiment [4] (HT29 normoxic cell cultures), “slight increase”. The “decrease in plasma PSA levels” value in [5] is on record as 88%. In experiment [5], the “decrease in tumour growth” value was 25 − 35%.
